# Assay results reported in PMC6201879, “N-substituted phenylbenzamides of the niclosamide chemotype attenuate obesity related changes in high fat diet fed mice” (PLoS ONE, 2018).
# Like-named read-outs stand apart in the source and are kept apart here.
# Columns and labels:
# [1] = system: Salmonella typhimurium TA1535
# [2] = system: Escherichia coli WP2 uvrA (pKM101)
# [3] = system: Salmonella typhimurium TA1537
# [4] = system: Salmonella typhimurium (TA98, TA100, TA1535 and TA1537) and Escherichia coli (WP2 uvrA (pKM101)); assay: Ames assay, overall outcome and cytotoxicity across strains
# [5] = system: carbonic anhydrase-III (CAIII); details: HFD fed-DIO mice; cited from earlier work
# [6] = system: HEK293 cells stably transduced with the human OCT3 transporter; assay: Cellular oxygen consumption rate (OCR), MitoXpress Xtra; type: cell-based; details: HEK293 cells expressing human OCT3
# Experimental: Oxygen consumption rate experiments were performed by ZenBio, Inc (RTP, NC). HEK293 cells stably transduced with the human OCT3 transporter were plated in black-walled microclear plates (Greiner-BioOne) at 60,000 cells per well in growth medium. Cells were incubated overnight to allow attachment before growth medium was removed and replaced with 150μL of assay medium containing compound dilutions. Four concentrations of each compound were prepared and transferred to the empty wells. Control wells contained assay medium only or assay medium containing […] (FCCP) at 1μM. Ten μL of MitoXpress Xtra reagent was added to each test well and 100μL of pre-warmed mineral oil was overlaid in each well to create a seal. The plates were immediately read on a FLUOstar Omega (BMG) using dual read Time Resolved Fluorescence (TR-F) for 2 hours, with measurements taken every 2 minutes using 340nm and 650nm as excitation and emission wavelengths respectively. For lifetime analysis, two measurements per well were taken: 1) delay of 30μs, with a window of 30μs; and 2) delay of 70μs with a window of 30μs. Background TRF values were subtracted from all readings. A ratiometric analysis was performed to determine changes in the Lifetime fluorescence signal: Lifetime (μs)[T] = (D2-D1)/ln(W1/W2), where D is delay; W is fluorescence window value at each time point. Lifetime slopes were calculated using each Lifetime measurement over time. Data are presented as mean ± standard error (SE). The differences between the control (DMSO) and compound treated wells were analyzed using the Student’s t-test. A value of p≤0.05 was considered statistically significant. […]
# [7] = cited from earlier work
# [8] = system: Escherichia coli WP2 uvrA (pKM101); assay: Ames assay, strain WP2 uvrA (pKM101); details: for Mean Revertant Colony Counts WP2 uvrA (pKM101) SP9+: with S9; for Mean Revertant Colony Counts WP2 uvrA (pKM101) S9-: without S9
# p-AMPK Thr-172 = assay: Western blot of p-AMPK Thr-172 in liver of HFD-fed mice; details: HFD-fed mice; 5 or 25mg/kg IP daily for 12 days
# PH5CH8 liver cells = assay: High-throughput hepatic de novo lipogenesis (DNL) assay, high content imaging of steatotic phenotype; type: cell-based, human
# [9] = parameters: method as in PMID 26245118; details: cited from earlier work
# [10] = system: Salmonella typhimurium TA98; assay: Ames assay, strain TA98; details: for Mean Revertant Colony Counts TA98 SP9+: with S9
# [11] = system: Salmonella typhimurium TA100; details: for Mean Revertant Colony Counts TA-100 SP9+: with S9
# [12] = system: fatty acid synthase (FAS); assay: Western blot of fatty acid synthase in liver of HFD-fed mice; details: HFD-fed mice; highest concentration (25mg/kg) IP daily for 12 days
# [13] = system: C57-diet induced obesity (DIO) mouse; assay: Glucose tolerance test in DIO mice; type: in vivo; details: 5mg/kg for 7 days
# Experimental: Animals were then treated with 5mg/kg niclosamide or vehicle for 7 days and GTT was performed again.
# Glucose tolerance test in DIO mice. 2g/kg of glucose was injected IP and at 15, 30 and 60 min, blood glucose levels were measured.
# [14] = any concentration tested, vs negative control
structure (smiles),measurement,setting,value
"Nc1ccc2cc3ccccc3cc2c1 [Compound 2-AA, 2-Aminoanthracene, reference compound]",Mean Revertant Colony Counts TA-1535 SP9+,[1]; Salmonella typhimurium,24.0
same,Mean Revertant Colony Counts WP2 uvrA (pKM101) SP9+,[2],345.3
same,Mean Revertant Colony Counts TA-1537 SP9+,[3]; Salmonella typhimurium,11.0
O=C(Nc1ccc([N+](=O)[O-])cc1Cl)c1cc(Cl)ccc1O [Niclosamide],Mean Revertant Colony Counts TA-1535 SP9+,"[1]; 1.5 ug/Well, with S9",3.3
same,Mean Revertant Colony Counts TA-1535 SP9+,"[1]; 4 ug/Well, with S9",3.7
same,"fold increase in the mean number of revertant colonies, TA1535",[1]; [14],< 3 fold
same,Ames assay outcome (mutagenicity),[4],positive
same,"concentration with significant cytotoxicity, strains TA98, TA100, TA1535 and TA1537",[4]; in the absence of the S9 mix,≥ 1.5 μg /well
same,"concentration with significant cytotoxicity, strains TA98, TA100, TA1535 and TA1537",[4]; in the presence of S9 mix,≥ 10 μg /well
same,carbonic anhydrase-III (CAIII) hepatic protein,[5],down regulated
same,change in respiration / oxygen consumption rate (OCR),"[6]; compared to DMSO control, 2 hours",increased OCR
same,concentration dependence of OCR change,[6]; four concentrations,dose dependent increase in OCR
same,peak plasma concentration (Cmax),[7]; 5mg/kg oral dose in rats,354 ng/mL
same,half-life,"[7]; rat, in vivo, po, 5 mg/kg",6.7 h
same,Mean Revertant Colony Counts WP2 uvrA (pKM101) SP9+,[8]; 1.5 ug/Well,36.7
same,Mean Revertant Colony Counts WP2 uvrA (pKM101) S9-,[8]; 1.5 ug/Well,17.3
same,Mean Revertant Colony Counts WP2 uvrA (pKM101) SP9+,[8]; 4 ug/Well,44.0
same,Mean Revertant Colony Counts WP2 uvrA (pKM101) S9-,[8]; 4 ug/Well,20.7
same,Mean Revertant Colony Counts WP2 uvrA (pKM101) SP9+,[8]; 10 ug/Well,34.0
same,Mean Revertant Colony Counts WP2 uvrA (pKM101) S9-,[8]; 10 ug/Well,19.3
same,Mean Revertant Colony Counts WP2 uvrA (pKM101) SP9+,[8]; 25 ug/Well,31.7
same,Mean Revertant Colony Counts WP2 uvrA (pKM101) S9-,[8]; 25 ug/Well,14.7
same,Mean Revertant Colony Counts WP2 uvrA (pKM101) SP9+,[8]; 64 ug/Well,27.0
same,Mean Revertant Colony Counts WP2 uvrA (pKM101) S9-,[8]; 64 ug/Well,22.7
same,Mean Revertant Colony Counts WP2 uvrA (pKM101) SP9+,[8]; 160 ug/Well,24.7
same,Mean Revertant Colony Counts WP2 uvrA (pKM101) S9-,[8]; 160 ug/Well,17.7
same,Mean Revertant Colony Counts WP2 uvrA (pKM101) SP9+,[8]; 400 ug/Well,14.7
same,Mean Revertant Colony Counts WP2 uvrA (pKM101) S9-,[8]; 400 ug/Well,17.7
same,Mean Revertant Colony Counts WP2 uvrA (pKM101) SP9+,[8]; 1000 ug/Well,14.7
same,Mean Revertant Colony Counts WP2 uvrA (pKM101) S9-,[8]; 1000 ug/Well,14.0
same,"fold increase in the mean number of revertant colonies, WP2 uvrA (pKM101)",[8]; [14],< 2 fold
same,"concentration with significant cytotoxicity, WP2 uvrA (pKM101)",[8]; both in the presence and absence of S9 mix,≥ 400 μg /well
same,Mean Revertant Colony Counts TA-1537 SP9+,"[3]; 1.5 ug/Well, with S9",1.7
same,Mean Revertant Colony Counts TA-1537 SP9+,"[3]; 4 ug/Well, with S9",2.0
same,Mean Revertant Colony Counts TA-1537 SP9+,"[3]; 10 ug/Well, with S9",0.7
same,"fold increase in the mean number of revertant colonies, TA1537",[3]; [14],< 3 fold
same,p-AMPK Thr-172 in liver,p-AMPK Thr-172,significantly upregulated
same,IC50,"PH5CH8 liver cells; Homo sapiens, PH5CH8 liver cells, 10-point dose response between 1μM and 1.9nM, read-out: IC50 (uM), inhibition of steatotic phenotype in DNL assay",0.02 µM
same,reduced steatosis (steatotic phenotype in DNL assay),"PH5CH8 liver cells; PH5CH8, assay validation",77 ±12%
same,half-life,[9],6.7 h
same,Mean Revertant Colony Counts TA98 SP9+,[10]; 1.5 ug/Well,52.0
same,Mean Revertant Colony Counts TA98 S9-,"[10]; 1.5 ug/Well, without S9",1.5
same,Mean Revertant Colony Counts TA98 SP9+,[10]; 4 ug/Well,108.3
same,Mean Revertant Colony Counts TA98 SP9+,[10]; 10 ug/Well,194.7
same,"fold increase in the mean number of revertant colonies, TA98","[10]; 1.5, 4 and 10 μg/well in the presence of S9 mix",≥ 2 fold
same,Mean Revertant Colony Counts TA-100 SP9+,[11]; 1.5 ug/Well,19.3
same,Mean Revertant Colony Counts TA-100 S9-,"[11]; 1.5 ug/Well, without S9",9.3
same,Mean Revertant Colony Counts TA-100 SP9+,[11]; 4 ug/Well,36.7
same,Mean Revertant Colony Counts TA-100 SP9+,[11]; 10 ug/Well,23.3
same,Mean Revertant Colony Counts TA-100 SP9+,[11]; 25 ug/Well,2.3
same,"fold increase in the mean number of revertant colonies, TA100",[11]; [14],< 2 fold
same,expression of fatty acid synthase (FAS) in liver,[12],significant reduction
same,"blood glucose levels at 60 minutes, glucose tolerance test",[13]; 2g/kg glucose IP,250 mg/dL
same,plasma glucose levels after the 7-day treatment period,[13]; pre-treatment approximately 400mg/dL,~275 mg/dL
